Patent EP3171885B1, “PEPTIDE HYDROLYSATE OF SNAILS, PEPTIDE FRACTIONS, PRODUCTION METHOD, USE AND COMPOSITIONS FOR INHIBITING THE ANGIOTENSIN CONVERTING ENZYME” (Drevet, Pascal, priority 2014, dated 2016)
Where two headings read alike, the source gives them in different places. Where a SMILES comes first, the peptide text is derived from it.

Target: enzyme de conversion de l'angiotensine (ECA) (Homo sapiens, UniProt P12821)
Assay: biochemical
Method: Brièvement, cette méthode repose sur l'hydrolyse du substrat Hippuryl-L-Histidyl-L-Leucine (HHL) par l'ECA pour produire de l'acide hippurique (HA) et de l'Histydil-Leucine. Après incubation à 37°C pendant 30 minutes dans du tampon borate de sodium pH 8,3, la réaction est arrêtée par addition de HCI. La séparation du substrat HHL et du produit HA est réalisé par chromatographie liquide haute pression en phase inversée (RP-HPLC) sur une colonne C18 (Kinetex). L'élution se fait par un mélange d'eau (75% v/v) et d'acétonitrile (25% V/V).
La comparaison entre la concentration de HA produite pour chaque concentration d'échantillon avec celle obtenue sans addition de peptide permet la détermination de l'IC50.
A titre de témoin positif, le captopril est également testé en parallèle de l'hydrolysat, des fractions et des peptides. Le témoin négatif est le substrat HHL seul, sans ECA, dilué dans du tampon borate pH 8,3. L'échantillon est le peptide, la fraction ou l'hydrolysat total à tester.
Le pourcentage d'inhibition de l'ECA est calculé selon la formule suivante : Pourcentage d'inhibition ECA (%) = (ASCHA ([…])−ASCHA (Echantillon))/(ASCHA ([…])−ASCHA (HHL)) × 100 [formula]

[1] = substrate HHL 5 mM, 37°C, 30 minutes, sodium borate buffer pH 8,3, detection at 228 nm, read-out: IC50 (converted)

enzyme de conversion de l'angiotensine (ECA), sequence (P12821 30-1306): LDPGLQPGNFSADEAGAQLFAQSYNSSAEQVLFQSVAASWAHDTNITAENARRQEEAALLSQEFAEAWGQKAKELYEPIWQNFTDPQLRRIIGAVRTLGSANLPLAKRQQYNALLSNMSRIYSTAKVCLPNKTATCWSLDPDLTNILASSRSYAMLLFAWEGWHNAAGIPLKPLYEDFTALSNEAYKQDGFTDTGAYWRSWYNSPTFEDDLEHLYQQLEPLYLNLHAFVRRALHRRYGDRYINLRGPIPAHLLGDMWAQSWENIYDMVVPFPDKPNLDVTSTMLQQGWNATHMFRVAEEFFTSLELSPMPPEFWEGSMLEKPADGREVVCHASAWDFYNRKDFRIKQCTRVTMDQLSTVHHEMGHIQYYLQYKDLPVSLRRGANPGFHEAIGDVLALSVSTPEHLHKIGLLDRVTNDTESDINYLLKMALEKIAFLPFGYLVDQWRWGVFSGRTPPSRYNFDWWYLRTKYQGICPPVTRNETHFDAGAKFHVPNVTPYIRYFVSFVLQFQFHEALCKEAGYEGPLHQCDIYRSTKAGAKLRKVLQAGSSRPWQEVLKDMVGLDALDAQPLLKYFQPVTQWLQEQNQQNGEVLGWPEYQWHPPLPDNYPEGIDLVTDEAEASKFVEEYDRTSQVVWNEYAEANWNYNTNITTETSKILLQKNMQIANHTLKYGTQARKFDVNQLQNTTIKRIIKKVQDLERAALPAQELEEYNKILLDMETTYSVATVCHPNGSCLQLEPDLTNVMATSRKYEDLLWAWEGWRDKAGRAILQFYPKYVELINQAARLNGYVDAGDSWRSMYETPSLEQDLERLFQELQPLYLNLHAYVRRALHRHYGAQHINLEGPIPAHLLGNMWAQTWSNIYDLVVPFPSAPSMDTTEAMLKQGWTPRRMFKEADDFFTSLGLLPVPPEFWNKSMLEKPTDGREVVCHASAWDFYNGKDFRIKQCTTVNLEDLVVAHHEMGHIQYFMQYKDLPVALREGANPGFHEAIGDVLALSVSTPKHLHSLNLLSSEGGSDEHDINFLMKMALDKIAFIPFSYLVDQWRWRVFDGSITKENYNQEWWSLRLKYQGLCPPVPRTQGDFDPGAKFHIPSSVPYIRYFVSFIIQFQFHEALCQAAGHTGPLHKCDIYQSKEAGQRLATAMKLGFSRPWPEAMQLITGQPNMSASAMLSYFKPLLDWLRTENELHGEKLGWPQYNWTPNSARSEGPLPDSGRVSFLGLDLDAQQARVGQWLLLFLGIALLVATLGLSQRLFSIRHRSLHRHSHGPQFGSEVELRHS

IC50 [1] | Compound | IC50
1280 µM | N[C@@H](CC(=O)O)C(=O)N[C@@H](Cc1ccccc1)C(=O)O [DF, Acide Aspartique -Phénylalanine] (H-Asp-Phe-OH) | 
 | N[C@@H](CO)C(=O)N[C@@H](Cc1ccccc1)C(=O)O [SF, Serine-Phénylalanine] | 516 µM
40.3 µM | CC(C)[C@H](N)C(=O)N[C@@H](Cc1ccc(O)cc1)C(=O)O [VY, Valine-Tyrosine] (H-Val-Tyr-OH) | 
